As a reminder, the EC50 is the concentration that produces a half-maximal response.

We go through 38 compounds from patent publication US20070208026A1, “N-Containing Heteroaromatic Compounds As Modulators Of Ppars And Methods Of Treating Metabolic Disorders” (priority 2003, published 2007).

Holding throughout (assay): cell-based human PPAR-GAL4 chimera luciferase reporter assay in CV-1 cells
For orientation: A reporter such as luciferase makes a cellular process visible.

In one assay the target is T1, hPPAR γ (Homo sapiens, UniProt P37231).
T1 construct: expressed in transfected cells; host or cells: CV-1 cells
T1 sequence (P37231 238-503 limits assumed): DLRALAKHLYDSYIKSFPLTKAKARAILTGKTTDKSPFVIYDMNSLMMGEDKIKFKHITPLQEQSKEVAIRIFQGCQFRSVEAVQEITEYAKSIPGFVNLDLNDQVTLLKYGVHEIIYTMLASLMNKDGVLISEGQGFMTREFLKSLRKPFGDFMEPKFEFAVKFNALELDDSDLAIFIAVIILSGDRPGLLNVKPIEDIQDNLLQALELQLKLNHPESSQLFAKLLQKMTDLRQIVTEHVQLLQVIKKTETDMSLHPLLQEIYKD
The settings on record: PPAR LBD-GAL4 chimera, 24 hours treatment. The method, then: (§1) The compounds were evaluated in a cell-based assay to determine their human PPAR activity (See Tables 2 and 3). The plasmids for human PPAR-GAL4 chimeras were prepared by fusing amplified cDNAs encoding the LBDs of PPARs to the C-terminal end of the yeast GAL4 DNA binding domain. CV-1 cells were grown and transiently tranfected with PerFectin (GTS, San Diego, Calif.) according to the manufacturer's protocol along with a luciferase reporter. Eight hours after transfection, 50 μl of cells were replated into 384 well plates ([…]). Sixteen hours after replating, cells were treated with either compounds or 1% DMSO for 24 hours. Luciferase activity was then assayed with Britelite (Perkin Elmer) following the manufacturer's protocol and measured with either the Perkin Elmer Viewlux or Molecular Devices Acquest.

The target in the next assay is T2, hPPAR δ (Homo sapiens, UniProt Q03181).
T2 construct: expressed in transfected cells; host or cells: CV-1 cells
T2 sequence (Q03181 211-439 limits assumed): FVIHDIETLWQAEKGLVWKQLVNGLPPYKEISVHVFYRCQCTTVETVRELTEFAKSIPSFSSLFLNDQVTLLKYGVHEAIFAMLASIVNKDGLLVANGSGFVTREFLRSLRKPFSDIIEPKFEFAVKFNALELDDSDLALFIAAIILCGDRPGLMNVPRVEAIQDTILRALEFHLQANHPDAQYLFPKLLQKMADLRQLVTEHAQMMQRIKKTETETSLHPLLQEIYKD
The settings on record: PPAR LBD-GAL4 chimera, 24 hours treatment. The method, then:
as §1

The target in another assay is T3, hPPAR α (Homo sapiens, UniProt Q07869).
T3 construct: expressed in transfected cells; host or cells: CV-1 cells
T3 sequence (Q07869 239-466 limits assumed): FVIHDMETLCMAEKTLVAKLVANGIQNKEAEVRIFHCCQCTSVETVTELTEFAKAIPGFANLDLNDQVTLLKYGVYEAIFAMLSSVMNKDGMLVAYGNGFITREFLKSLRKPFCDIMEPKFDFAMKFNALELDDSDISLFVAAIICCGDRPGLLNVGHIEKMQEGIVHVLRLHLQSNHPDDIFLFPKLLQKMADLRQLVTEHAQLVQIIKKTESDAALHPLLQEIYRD
To be noted: PPAR LBD-GAL4 chimera, 24 hours treatment; for EC50: read-out: hPPAP α (EC50). The method, then:
as §1

SMILES strings stand for the structures. A value given as a limit tells only on which side of the number the result lay.

In the case of `CCc1cnc(N(CCCOc2cccc3ccc(C(=O)O)nc23)Cc2ccc(C(F)(F)F)cc2C(F)(F)F)nc1`, the EC50 was 1 to 100 µM on hPPAR γ, more than 100 µM on hPPAR δ and more than 100 µM at hPPAR α.

Turning to `CCc1cnc(N(CCCOc2ccc3[nH]cc(CC(=O)O)c3c2)Cc2ccc(C(F)(F)F)cc2C(F)(F)F)nc1`, the results for the half-maximal effective concentration (EC50) at hPPAR γ, at hPPAR δ and at hPPAR α were less than 1 µM, 1 to 100 µM and more than 100 µM, respectively.

As to `CCc1cnc(N(CCCOc2ccc3c(c2)c(CC(=O)O)cn3C)Cc2ccc(C(F)(F)F)cc2C(F)(F)F)nc1`, the EC50 on hPPAR γ was less than 1 µM; at hPPAR α, 1 to 100 µM. The “hPPAR δ (EC50)” value at hPPAR δ is “B/C”.

As to `CCCCN(CCCOc1ccc2[nH]cc(CC(=O)O)c2c1)c1ncc(CC)cn1`, the EC50 is 1 to 100 µM at hPPAR γ, more than 100 µM on hPPAR δ and more than 100 µM at hPPAR α.

For `CCCCN(CCCOc1ccc2[nH]cc(CC(=O)O)c2c1)c1ccccn1`, the EC50 on hPPAR γ is 1 to 100 µM; at hPPAR δ, more than 100 µM; on hPPAR α, more than 100 µM.

As for `CCCCN(CCCOc1ccc2[nH]cc(CC(=O)O)c2c1)c1nc2ccccc2s1`, the EC50 at hPPAR γ is 1 to 100 µM; at hPPAR δ, 1 to 100 µM; at hPPAR α, more than 100 µM.

In the case of `CCCCN(CCCOc1ccc2[nH]cc(CC(=O)O)c2c1)c1nc2ccccc2o1`, the EC50 on hPPAR γ is 1 to 100 µM; on hPPAR δ it was 1 to 100 µM; at hPPAR α, more than 100 µM.

In the case of `O=C(O)Cc1c[nH]c2ccc(OCCCN(Cc3ccc(C(F)(F)F)cc3C(F)(F)F)c3nc4ccccc4o3)cc12`, the EC50 at hPPAR γ was less than 1 µM; on hPPAR δ, less than 1 µM; at hPPAR α, more than 100 µM.

On to `O=C(O)Cc1c[nH]c2ccc(OCCCN(Cc3ccc(C(F)(F)F)cc3C(F)(F)F)c3ccccn3)cc12`, for which the EC50 is less than 1 µM on hPPAR γ, 1 to 100 µM at hPPAR δ and more than 100 µM at hPPAR α.

`O=C(O)Cc1c[nH]c2ccc(OCCCN(Cc3ccc(C(F)(F)F)cc3C(F)(F)F)c3nc4ccccc4s3)cc12`: the EC50 is less than 1 µM on hPPAR γ, more than 100 µM on hPPAR δ and more than 100 µM at hPPAR α.

As for `CCc1cnc(N(CCCOc2nc3ccccc3nc2C(=O)O)Cc2ccc(C(F)(F)F)cc2C(F)(F)F)nc1`, the 50% effective concentration (EC50) was less than 1 µM on hPPAR γ, more than 100 µM on hPPAR δ and more than 100 µM on hPPAR α.

Take `CCCCN(CCCOc1nc2ccccc2nc1C(=O)O)c1ncc(CC)cn1`: the EC50 was 1 to 100 µM at hPPAR γ, 1 to 100 µM at hPPAR δ and more than 100 µM at hPPAR α.

Regarding `CCCCN(CCCOc1nc2ccccc2nc1C(=O)O)c1ccccn1`, the EC50 on hPPAR γ is 1 to 100 µM; on hPPAR δ it was more than 100 µM; on hPPAR α it was more than 100 µM.

In the case of `CCCCN(CCCOc1nc2ccccc2nc1C(=O)O)c1nc2ccccc2s1`, the figures for the EC50 at hPPAR γ, at hPPAR δ and at hPPAR α were 1 to 100 µM, more than 100 µM and more than 100 µM, respectively.

On to `CCCCN(CCCOc1nc2ccccc2nc1C(=O)O)c1nc2ccccc2o1`, for which the EC50 at hPPAR γ was 1 to 100 µM; at hPPAR δ, more than 100 µM; at hPPAR α, more than 100 µM.

Take `O=C(O)c1nc2ccccc2nc1OCCCN(Cc1ccc(C(F)(F)F)cc1)c1nc2ccccc2s1`: the EC50 on hPPAR γ, on hPPAR δ and on hPPAR α was more than 100 µM throughout.

For the compound `O=C(O)c1nc2ccccc2nc1OCCCN(Cc1ccc(C(F)(F)F)cc1C(F)(F)F)c1nc2ccccc2o1`, the values for the EC50 at hPPAR γ, on hPPAR δ and at hPPAR α were less than 1 µM, more than 100 µM and more than 100 µM, respectively.

On to `O=C(O)c1nc2ccccc2nc1OCCCN(Cc1ccc(C(F)(F)F)cc1C(F)(F)F)c1ccccn1`, for which the values for the EC50 at hPPAR γ, at hPPAR δ and on hPPAR α were less than 1 µM, more than 100 µM and more than 100 µM, respectively.

With `O=C(O)c1nc2ccccc2nc1OCCCN(Cc1ccc(C(F)(F)F)cc1C(F)(F)F)c1nc2ccccc2s1`, the EC50 at hPPAR γ is less than 1 µM; on hPPAR δ, more than 100 µM; at hPPAR α, more than 100 µM.

Turning to `CCc1cnc(N(CCCOc2cncc(C(=O)O)c2)Cc2ccc(C(F)(F)F)cc2C(F)(F)F)nc1`, the EC50 is less than 1 µM on hPPAR γ and 1 to 100 µM on hPPAR δ. Further, on hPPAR α, the “hPPAP α (EC50)” value was “B/C”.

For the compound `CCc1cnc(N(CCCOc2ncc(C(=O)O)cc2Cl)Cc2ccc(C(F)(F)F)cc2C(F)(F)F)nc1`, the EC50 is less than 1 µM at hPPAR γ, more than 100 µM on hPPAR δ and more than 100 µM at hPPAR α.

For `CCCCN(CCCOc1cncc(C(=O)O)c1)c1ncc(CC)cn1`, the EC50 is less than 1 µM on hPPAR γ, more than 100 µM on hPPAR δ and more than 100 µM on hPPAR α.

`CCCCN(CCCOc1cncc(C(=O)O)c1)c1ccccn1`: the figures for the EC50 on hPPAR γ, at hPPAR δ and on hPPAR α were 1 to 100 µM, more than 100 µM and more than 100 µM, respectively.

Take `CCCCN(CCCOc1cncc(C(=O)O)c1)c1nc2ccccc2s1`: the EC50 is less than 1 µM on hPPAR γ, more than 100 µM on hPPAR δ and more than 100 µM on hPPAR α.

Turning to `CCCCN(CCCOc1cncc(C(=O)O)c1)c1nc2ccccc2o1`, the EC50 on hPPAR γ is 1 to 100 µM; at hPPAR δ it was more than 100 µM; on hPPAR α it was more than 100 µM.

Consider `O=C(O)c1cncc(OCCCN(Cc2ccc(C(F)(F)F)cc2)c2nc3ccccc3s2)c1`, for which the EC50 was less than 1 µM at hPPAR γ, more than 100 µM on hPPAR δ and 1 to 100 µM at hPPAR α.

For `O=C(O)c1cncc(OCCCN(Cc2ccc(C(F)(F)F)cc2C(F)(F)F)c2nc3ccccc3o2)c1`, the figures for the concentration giving a half-maximal response (EC50) on hPPAR γ, on hPPAR δ and on hPPAR α were 1 to 100 µM, more than 100 µM and more than 100 µM, respectively.

In the case of `O=C(O)c1cncc(OCCCN(Cc2ccc(C(F)(F)F)cc2C(F)(F)F)c2ccccn2)c1`, the figures for the EC50 at hPPAR γ, at hPPAR δ and on hPPAR α were less than 1 µM, 1 to 100 µM and 1 to 100 µM, respectively.

As for `O=C(O)c1cncc(OCCCN(Cc2ccc(C(F)(F)F)cc2C(F)(F)F)c2nc3ccccc3s2)c1`, the EC50 at hPPAR γ is 1 to 100 µM; at hPPAR δ it was more than 100 µM; on hPPAR α it was more than 100 µM.

Regarding `CCc1cnc(N(CCCOc2cccc(C(=O)O)n2)Cc2ccc(C(F)(F)F)cc2C(F)(F)F)nc1`, the figures for the EC50 on hPPAR γ and on hPPAR δ were less than 1 µM and more than 100 µM, respectively. Moreover, the “hPPAP α (EC50)” value at hPPAR α was “A/B”.

As to `CCCCN(CCCOc1cccc(C(=O)O)n1)c1ncc(CC)cn1`, the results for the EC50 at hPPAR γ, on hPPAR δ and on hPPAR α were less than 1 µM, 1 to 100 µM and 1 to 100 µM, respectively.

For the compound `CCCCN(CCCOc1cccc(C(=O)O)n1)c1ccccn1`, the results for the half-maximal effective concentration (EC50) at hPPAR γ, at hPPAR δ and on hPPAR α were 1 to 100 µM, more than 100 µM and more than 100 µM, respectively.

Turning to `CCCCN(CCCOc1cccc(C(=O)O)n1)c1nc2ccccc2s1`, the concentration giving a half-maximal response (EC50) at hPPAR γ is 1 to 100 µM; on hPPAR δ, more than 100 µM; at hPPAR α it was more than 100 µM.

With `O=C(O)c1cccc(OCCCN(Cc2ccc(C(F)(F)F)cc2)c2nc3ccccc3s2)n1`, the EC50 on hPPAR γ is less than 1 µM; on hPPAR δ, more than 100 µM; on hPPAR α, more than 100 µM.

Regarding `O=C(O)c1cccc(OCCCN(Cc2ccc(C(F)(F)F)cc2C(F)(F)F)c2nc3ccccc3o2)n1`, the EC50 at hPPAR γ is more than 100 µM; at hPPAR δ, more than 100 µM; at hPPAR α it was less than 1 µM.

In the case of `CCCCN(CCCOc1cccc(C(=O)O)n1)c1nc2ccccc2o1`, the values for the EC50 on hPPAR γ, at hPPAR δ and at hPPAR α were less than 1 µM, more than 100 µM and 1 to 100 µM, respectively.

`O=C(O)c1cccc(OCCCN(Cc2ccc(C(F)(F)F)cc2C(F)(F)F)c2ccccn2)n1`: the values for the EC50 at hPPAR γ, at hPPAR δ and on hPPAR α were less than 1 µM, more than 100 µM and 1 to 100 µM, respectively.

For `O=C(O)c1cccc(OCCCN(Cc2ccc(C(F)(F)F)cc2C(F)(F)F)c2nc3ccccc3s2)n1`, the EC50 at hPPAR γ is less than 1 µM; at hPPAR δ it was more than 100 µM; on hPPAR α, less than 1 µM.
